Experimental data from patent US20050245563A1 (Millennium Pharmaceuticals, Inc., priority 2003, published 2005).
Structures can show the parent of a compound that is named as a salt.

molecular target: T1, human Chk1 (GST-Chk1) (Homo sapiens, UniProt O14757); assay: Chk1 DELFIA kinase assay (2 nM GST-Chk1, 600 μM ATP); type: biochemical; conditions: Biotin-GLYRSPSMPEN-amide substrate
T1 construct: made in house; host or cells: insect cells (baculovirus, Bac-to-Bac)
T1 sequence (O14757 1-476): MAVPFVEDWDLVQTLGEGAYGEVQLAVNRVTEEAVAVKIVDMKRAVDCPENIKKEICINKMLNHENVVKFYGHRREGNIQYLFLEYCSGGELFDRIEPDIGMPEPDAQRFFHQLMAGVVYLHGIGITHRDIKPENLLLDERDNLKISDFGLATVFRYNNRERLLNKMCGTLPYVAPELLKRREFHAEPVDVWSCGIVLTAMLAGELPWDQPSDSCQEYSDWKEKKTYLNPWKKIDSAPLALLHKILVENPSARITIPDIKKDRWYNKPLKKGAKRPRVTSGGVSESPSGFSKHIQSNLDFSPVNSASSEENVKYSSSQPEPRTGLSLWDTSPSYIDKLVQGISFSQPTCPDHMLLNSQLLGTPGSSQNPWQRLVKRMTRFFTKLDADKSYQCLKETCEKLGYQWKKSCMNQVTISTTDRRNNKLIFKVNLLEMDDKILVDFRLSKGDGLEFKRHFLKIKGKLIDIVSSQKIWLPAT
Method: Recombinant human Chk1 was expressed as a fusion protein with glutathione S-transferase at the amino-terminus (GST-Chk1) using standard baculovirus vectors and (Bac-to-Bac®) insect cell expression system purchased from GIBCO™ Invitrogen. Recombinant protein expressed in insect cells was purified using glutathione sepharose (Amersham Biotech) using standard procedures described by the manufacturer.
Chk1 DELFIA® Kinase Assay:
Assays (25 μL) utilized 2 nM GST-Chk1 containing 10 mM Tris, pH 7.5, 20% glycerol, 50 mM sodium chloride (NaCl), 0.01% Surfact-Amps® 20, 1 μM peptide stubstrate (Biotin-GLYRSPSMPEN-amide) (SEQ ID NO: 3), 01.% BSA, 2 mM DTT, 4% DMSO, 600 μM ATP, 10 MM MgCl2 and reacted for 50 minutes at room temperature. Reactions were terminated with 100 μL of Stop buffer containing 1% BSA, 10 mM Tris, pH 8.0, 150 mM NaCl, 100 mM EDTA. Stopped reactions (100 μL) were transferred to 96 well NeutrAvidin plates (Pierce) to capture the biotin-peptide substrate during a 30 minute room temperature incubation. Wells were washed and reacted with 100 μL PerkinElmer Wallac Assay Buffer containing 21.5 ng/ml anti-phospho-Ser216-Cdc25c rabbit polyclonal antibody from Cell Signaling Technology (Beverly, Mass.) and 292 ng/ml europium labeled anti-rabbit-IgG for 1 hour at room temperature. Wells were washed and europium released from the bound antibody by addition of Enhancement Solution (100 μL) (PerkinElmer Wallac) and detected using a Perkin Elmer Wallac Envison™ 2100 multilabel reader using standard manufacturer settings.

| SMILES | IC50 |
| --- | --- |
| Cc1[nH]nc2c1c(=O)n(CCCN)c1ccc(C#CCN3CCCCC3)cc21 [Example 286, 5-(3-Amino-propyl)-3-methyl-8-(3-piperidin-1-yl-prop-1-ynyl]-2,5-dihydro-pyrazolo[4,3-c]quinolin-4-one] | < 1 µM |
| Cc1[nH]nc2c1c(=O)n(CCCN)c1cc(C(=O)NCCc3cccnc3)ccc21 [Example 366, 5-(3-Amino-propyl)-3-methyl-4-oxo-4,5-dihydro-2H-pyrazolo[4,3-c]quinoline-7-carboxylic acid (2-pyridin-3-yl-ethyl)-amide] | < 1 µM |
| CCc1[nH]nc2c1c(=O)n(CCCN)c1ccc(CCCN3CCCC3)cc21 [Example 330, 5-(3-Amino-propyl)-3-ethyl-8-(3-pyrrolidin-1-yl-propyl)-2,5-dihydro-pyrazolo[4,3-c]quinolin-4-one] | < 1 µM |
| C#Cc1ccc2c(c1)c1n[nH]c(C)c1c(=O)n2CCCNC [Example 293, 8-Ethynyl-3-methyl-5-(3-methylamino-propyl)-2,5-dihydro-pyrazolo[4,3-c]quinolin-4-one] | < 1 µM |
| CCc1ccc2c(c1)c1n[nH]c(C)c1c(=O)n2CCCNC [Example 300, 8-Ethyl-3-methyl-5-(3-methylamino-propyl)-2,5-dihydro-pyrazolo[4,3-c]quinolin-4-one] | < 1 µM |
| Cc1[nH]nc2c1c(=O)n(CCCN)c1ccc(C#CCN3CCOCC3)cc21 [Example 289, 5-(3-Amino-propyl)-3-methyl-8-(3-morpholin-4-yl-prop-1-ynyl]-2,5-dihydro-pyrazolo[4,3-c]quinolin-4-one] | < 1 µM |
| C#Cc1ccc2c(c1)c1n[nH]c(C)c1c(=O)n2C[C@H]1CCCNC1 [Example 303, 8-Ethynyl-3-methyl-5-piperidin-3-ylmethyl-2,5-dihydro-pyrazolo[4,3-c]quinolin-4-one] | < 1 µM |
| Cc1[nH]nc2c1c(=O)n(CCCN)c1ccc(NC(=O)CCN3CCCCC3)cc21 [Example 369, N-[5-(3-Amino-propyl)-3-methyl4-oxo-4,5-dihydro-2H-pyrazolo[4,3-c]quinolin-8-yl]-3-piperidin-1-yl-propionamide] | < 1 µM |
| CCN(CC)CCC(=O)Nc1ccc2c(c1)c1n[nH]c(C)c1c(=O)n2CCCN [Example 368, N-[5-(3-Amino-propyl)-3-methyl-4-oxo-4,5-dihydro-2H-pyrazolo[4,3-c]quinolin-8-yl]-3-diethylamino-propionamide] | < 1 µM |
| Cc1[nH]nc2c1c(=O)n(CCCN)c1ccc(C#Cc3ccccn3)cc21 [Example 278, 5-(3-Amino-propyl)-3-methyl-8-pyridin-2-ylethylynyl-2,5-dihydro-pyrazolo[4,3-c]quinolin-4-one] | < 1 µM |
| Cc1[nH]nc2c1c(=O)n(CCCN)c1ccc(C(=O)NCCN(C)C)cc21 [Example 352, 5-(3-Amino-propyl)-3-methyl-4-oxo-4,5-dihydro-2H-pyrazolo[4,3-c]quinoline-8-carboxylic acid (2-dimethylamino-ethyl)-amide] | < 1 µM |
| Cc1[nH]nc2c1c(=O)n(C[C@@H]1CCCNC1)c1ccc(Cl)cc21 [Example 224, 8-Chloro-3-methyl-5R-piperidin-3-ylmethyl-2,5-dihydro-pyrazolo[4,3-c]quinolin-4-one] | < 1 µM |
| Cc1[nH]nc2c1c(=O)n(CCCN)c1ccc(CCCN3CCCC3)cc21 [Example 297, 5-(3-Amino-propyl)-3-methyl-8-(3-pyrrolidin-1-yl-propyl)-2,5-dihydro-pyrazolo[4,3-c]quinolin-4-one] | < 1 µM |
| Cc1[nH]nc2c1c(=O)n(CCCN)c1ccc(NC(=O)[C@H]3CCCN3)cc21 [Example 263, Pyrrolidine-2R-carboxylic acid [5-(3-amino-propyl)-3-methyl-4-oxo-4,5-dihydro-2H-pyrazolo[4,3-c]quinolin-8-yl]-amide] | < 1 µM |
| Cc1[nH]nc2c1c(=O)n(CCCNCc1ccc[nH]1)c1ccc(Cl)cc21 [Example 243, 8-Chloro-3-methyl-5-{3-[(1H-pyrrol-2-ylmethyl)-amino]-propyl}2,5-dihydro-pyrazolo[4,3-c]quinolin-4-one] | < 1 µM |
| Cc1[nH]nc2c1c(=O)n(CCCNC(=O)c1ccc(Cl)cc1)c1ccc(CCCN3CCCC3)cc21 [Example 333] | < 1 µM |

Now from value to molecule:

| IC50 | SMILES |
| --- | --- |
| < 1 µM | COCCc1[nH]nc2c1c(=O)n(CCC(C)N)c1ccc(Cl)cc21 (stereo not drawn) [Example 219] |
| < 1 µM | Cc1[nH]nc2c1c(=O)n(CCCN)c1c(Br)cc(Cl)cc21 [Compound 349, 5-(3-Amino-propyl)-6-bromo-8-chloro-3-methyl 2,5-dihydro-pyrazolo[4,3-c]quinolin-4-one] |
| < 1 µM | CC(=O)Nc1ccc2c(c1)c1n[nH]c(C)c1c(=O)n2CCCN [Example 261, N-[5-(3-Amino-propyl)-3-methyl-4-oxo-4,5-dihydro-2H-pyrazolo[4,3-c]quinolin-8-yl]-acetamide] |
| < 1 µM | Cc1[nH]nc2c1c(=O)n(C[C@H](C)CN)c1ccc(Cl)cc21 [Example 221, 5-(3-Amino-2R-methyl-propyl)-8-chloro-3-methyl-2,5-dihydro-pyrazolo[4,3-c]quinolin-4-one] |
| < 1 µM | CCc1[nH]nc2c1c(=O)n(CCCN)c1ccc(Cl)cc21 [Example 311, 5-(3-Amino-propyl)-8-chloro-3-ethyl-2,5-dihydro-pyrazolo[4,3-c]quinolin-4-one hydrochloride] |
| < 1 µM | CCc1ccc2c(c1)c1n[nH]c(C)c1c(=O)n2CCCN [Example 294, 5-(3-Amino-propyl)-8-ethyl-3-methyl-2,5-dihydro-pyrazolo[4,3-c]quinolin4-one] |
| < 1 µM | CC(C)c1[nH]nc2c1c(=O)n(CCCN)c1ccc(Cl)cc21 [Compound 325, 5-(3-Amino-propyl)-8-chloro-3-isopropyl-2,5-dihydro-pyrazolo[4,3-c]quinolin-4-one] |
| < 1 µM | CNCCCn1c(=O)c2c(C)[nH]nc2c2cc(I)ccc21 [Example 234, 8-Iodo-3-methyl-5-(3-methylamino-propyl)-2,5-dihydro-pyrazolo[4,3-c]quinolin-4-one] |
| < 1 µM | Cc1[nH]nc2c1c(=O)n(CCCN)c1ccc(NC(=O)CCN)cc21 [Compound 357, 3-Amino-N-[5-(3-amino-propyl)-3-methyl-4-oxo-4,5-dihydro-2H-pyrazolo[4,3-c]quinolin-8-yl]-propionamide] |
| < 1 µM | COCCc1[nH]nc2c1c(=O)n(CCCN)c1ccc(C)cc21 [Example 354, 5-(3-Amino-propyl)-3-(2-methoxy-ethyl)-8-methyl-2,5-dihydro-pyrazolo[4,3-c]quinolin-4-one] |
| 1 to 10 µM | COC(C)Cc1[nH]nc2c1c(=O)n(CCCN)c1ccc(Cl)cc21 (stereo not drawn) [Compound 324, 5-(3-Amino-propyl)-8-chloro-3-(2-methoxy-propyl)-2,5-dihydro-pyrazolo[4,3-c]quinolin-4-one] |
| < 1 µM | Cc1[nH]nc2c1c(=O)n(CCCN)c1ccc(C#CC(C)O)cc21 (stereo not drawn) [Example 282, 5-(3-Amino-propyl)-8-(3-hydroxy-but-1-ynyl)-3-methyl 2,5-dihydro-pyrazolo[4,3-c]quinolin-4-one] |
| < 1 µM | CCCc1ccc2c(c1)c1n[nH]c(C)c1c(=O)n2CCCN [Example 302, 5-(3-Amino-propyl)-3-methyl-8-propyl-2,5-dihydro-pyrazolo[4,3-c]quinolin4-one] |
| < 1 µM | CCCc1[nH]nc2c1c(=O)n(CCCN)c1ccc(Cl)cc21 [Example 364, 5-(3-Amino-propyl)-8-chloro-3-propyl-2,5-dihydro-pyrazolo[4,3-c]quinolin-4-one] |
| < 1 µM | CNCCCn1c(=O)c2c(CCOC)[nH]nc2c2cc(Cl)ccc21 [Example 237, 8-Chloro-3-(2-methoxy-ethyl)-5-(3-methylamino-propyl)-2,5-dihydro-pyrazolo[4,3-c]quinolin-4-one] |
| 1 to 10 µM | COC(=O)c1ccc2c3n[nH]c(C)c3c(=O)n(CCCN)c2c1 [Compound 334, 5-(3-Amino-propyl)-3-methyl-4-oxo-4,5-dihydro-2H-pyrazolo[4,3-c]quinoline-7-carboxylic acid methyl ester] |
| < 1 µM | Cc1[nH]nc2c1c(=O)n(CCCO)c1ccc(Cl)cc21 [Compound 209, 8-Chloro-5-(3-hydroxy-propyl)-3-methyl-2,5-dihydro-pyrazolo[4,3-c]quinolin-4-one] |
